Assay results from paper PMC6273932, “Xanthium strumarium as an Inhibitor of α-Glucosidase, Protein Tyrosine Phosphatase 1β, Protein Glycation and ABTS^+ for Diabetic and Its Complication” (Molecules, 2016).
In brackets after ≈: the same amount, converted by molar mass.

Assays:
α-glucosidase = biological target: α-glucosidase; parameters: method as in ref 15 (Chen et al.); conditions: compounds isolated from aerial parts of Gynura divaricate; ref 15 (Chen et al.); read-out: inhibitory effects against α-glucosidase; cited from earlier work
[1] = system: α-glucosidase from Saccharomyces sp.; experiment: α-glucosidase inhibitory activity assay (pNPG substrate, absorbance 405 nm); type: biochemical
From the text: ^1H- and ^13C-NMR spectra and correlation NMR spectra such as COSY, HMBC, HMQC, and DEPT were obtained from a Bruker Avance DPX 400 (or 600) spectrometer (Berlin, Germany). These were obtained at operating frequencies of 400 MHz (^1H) and 100 (or 150) MHz (^13C) with CD3OD, (CD3)2SO, (CD3)2CO, or D2O and TMS was used as an internal standard; chemical shifts were reported in δ values. The α-glucosidase from Saccharomyces sp. (SSG) was purchased from Wako Pure Chemical Industries Ltd (Tokyo, Japan). […] All other chemicals and reagents used were of analytical grade.
The α-glucosidase inhibitory activity of the extracts and fractions was determined using a modified procedure reported method with a slight modification. The α-glucosidase activity was measured using the substrate p-nitrophenyl-α-D-glucopyranoside (pNPG), which is hydrolyzed by α-glucosidase to release the product p-nitrophenol, a colorant that can be monitored at 405 nm. The initial concentration of the enzyme solution was 0.62 unit/mL in 0.1 M phosphate buffer (pH 6.9) and the initial concentration of the substrate solution was 2 mM in the same phosphate buffer. The enzyme solution was mixed with water and the samples or controls in a clear 96-well microplate (flat bottom) and the reaction was initiated by addition of the substrate to the solution. The plates were incubated at 37 °C for 5 min and the reaction was terminated by the addition of 0.1 M Na2CO3. […] Background absorbance was determined using a non-enzyme control microplate containing the buffer and was subtracted from the absorbance of the samples and controls.

[2] = biological target: T1, protein tyrosine phosphatase 1β (PTP1β) (Homo sapiens, UniProt P18031); experiment: PTP1β inhibitory activity assay (colorimetric kit, IR5 phosphopeptide substrate); type: biochemical; conditions: for inhibition at 10 µg/mL: 10 μg/mL; for inhibition at 10 µg/mL / IC50: - is no activity; for IC50: isolated compounds
T1 sequence (P18031 1-322 limits assumed): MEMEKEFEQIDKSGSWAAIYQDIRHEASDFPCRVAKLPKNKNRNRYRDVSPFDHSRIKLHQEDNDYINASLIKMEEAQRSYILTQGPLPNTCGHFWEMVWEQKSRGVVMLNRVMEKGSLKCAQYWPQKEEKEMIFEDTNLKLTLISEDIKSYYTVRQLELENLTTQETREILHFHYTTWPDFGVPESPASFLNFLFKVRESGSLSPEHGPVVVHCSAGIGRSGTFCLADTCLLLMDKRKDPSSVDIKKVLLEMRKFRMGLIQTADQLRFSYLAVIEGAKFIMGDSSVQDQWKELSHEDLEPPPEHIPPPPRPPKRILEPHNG
Protocol: PTP1β tyrosine phosphatase drug discovery kit is a colorimetric, non-radioactive assay designed to measure the phosphatase activity of purified PTP1β. […] Following incubation at 37 °C for 30 min, the reaction was terminated with the BIOMOL RED^TM reagent. The amount of […] produced was estimated by measuring the absorbance at 620 nm. The non-enzymatic hydrolysis of the IR5 substrate was corrected by measuring the increase in absorbance at 620 nm obtained in the absence of PTP1β enzyme.

[3] = system: advanced glycation end products (AGEs); experiment: AGEs inhibitory activity, bovine serum albumin-methylglyoxal assay (fluorescence); type: biochemical; conditions: for IC50 AGEs: - is no activity
Protocol: The modified procedure of Lee et al. was followed. Bovine serum albumin (10 mg/mL) was incubated with 5 mM methylglyoxal in sodium phosphate buffer (100 mM; pH 7.4). […] All of the reagents and samples were […] by filtration through 0.2 μm membrane filters and the mixture was incubated at 37 °C for 7 days. The fluorescence intensity was measured at an excitation wavelength of 330 nm and an emission wavelength of 410 nm with a LS50B fluorescence spectrometer Perkin-Elmer Ltd., (Buckinghamshire, FLS, UK). Aminoguanidine was also tested as a known inhibitor.

[4] = ABTS^+ radical scavenging activity assay
Protocol: The method described by Li et al. was used with slight modifications. ABTS^+ diammonium salt (2 mM) and potassium persulfate (3.5 mM) were mixed, diluted in distilled water and kept in the dark at room temperature for 24 h before use. After addition of ABTS^+ solution to 10 µL of antioxidant, measurements were recorded at 10 min post reaction. The percentage inhibition of absorbance at 750 nm was calculated and plotted as a function of concentration of antioxidants. Trolox was used as positive control.

[5] = system: rat lens aldose reductase; conditions: compounds from X. strumarium; cited from earlier work
[6] = system: recombinant aldose reductase; conditions: compounds from X. strumarium; cited from earlier work
[7] = isolated compounds, - is no activity

| Compound | Inhibition (%) α-glucosidase ([1]; 50 μg/mL, - is no activity) [%] | inhibition at 10 µg/mL [2] [%] | IC50 [2] [µM] | Inhibition (%) AGEs ([3]; 100 μg/mL) [%] | other results |
| --- | --- | --- | --- | --- | --- |
| COC(=O)[C@]1(O)C[C@@H](O)[C@@H](OC(=O)/C=C/c2ccc(O)c(O)c2)[C@H](OC(=O)/C=C/c2ccc(O)c(O)c2)C1 [methyl 3,4-di-O-CQA] |  |  |  |  | IC50 (α-glucosidase): 12.2 µM |
| O=C(O)C1OC(Oc2c(-c3ccc(O)c(O)c3)oc3cc(O)cc(O)c3c2=O)C(O)C(O)C1O (centres unmarked) [compound 9, quercetin-3-O-glucuronide] | 15.40 | 10.7 | > 20.9 | 23.96 |  |
| methyl 4,5-di-O-CQA |  |  |  |  | IC50 (α-glucosidase): 13.1 µM |
| O=C(O)c1ccc(O)c(O)c1 [compound 1, protocatechuic acid] | 17.45 | 28.6 | > 64.9 | 9.49 | Inhibition (%) ABTS^+ ([4]; 1.66 μg/mL): 25.17%; Inhibition (%) ABTS^+ ([4]; 8.33 μg/mL): 68.72%; Inhibition (%) ABTS^+ ([4]; 16.66 μg/mL): 97.22%; IC50 ([4]; isolated compounds): 32.9 µM; IC50 ABTS^+ radical scavenging [4, 7]: 4.94 ± 0.38 µg/mL (≈ 32.1 µM) |
| O=C(/C=C/c1ccc(O)c(O)c1)O[C@@H]1C[C@](OC(=O)/C=C/c2ccc(O)c(O)c2)(C(=O)O)C[C@@H](O)[C@H]1O [compound 11, 1,5-di-O-caffeoylquinic acid] | 46.20 | 10.6 | > 19.4 | 25.04 | rat lens aldose reductase inhibitory activity [5]: strong; recombinant aldose reductase inhibitory activity [6]: strong |
| OC[C@H]1O[C@H](OC[C@H]2O[C@H](O[C@]3(CO)O[C@H](CO)[C@@H](O)[C@@H]3O)[C@H](O)[C@@H](O)[C@@H]2O)[C@H](O)[C@@H](O)[C@H]1O [compound 14, raffinose] | 5.82 | < 0 | > 19.8 | 14.99 |  |
| Cc1ccc(C(=O)Nc2ccc(S(=O)(=O)O)c3cc(S(=O)(=O)O)cc(S(=O)(=O)O)c23)cc1NC(=O)c1cccc(NC(=O)Nc2cccc(C(=O)Nc3cc(C(=O)Nc4ccc(S(=O)(=O)O)c5cc(S(=O)(=O)O)cc(S(=O)(=O)O)c45)ccc3C)c2)c1 [Suramin, reference compound] |  |  |  |  | inhibition at 1.43 µg/mL ([2]; 1.43 μg/mL): 10.4%; inhibition at 3.57 µg/mL ([2]; 3.57 μg/mL): 26.4%; inhibition at 7.15 µg/mL ([2]; 7.15 μg/mL): 52.2%; inhibition at 14.29 µg/mL ([2]; read-out: Inhibition (%) PTP1β): 83.6% |
| O=C(/C=C/c1ccc(O)c(O)c1)O[C@@H]1C[C@](O)(C(=O)O)C[C@@H](O)[C@H]1O [compound 5, chlorogenic acid] | 6.60 |  |  | 7.47 |  |
| O=C(/C=C/c1ccc(O)c(O)c1)O[C@@H]1C[C@](O)(C(=O)O)C[C@@H](OC(=O)/C=C/c2ccc(O)c(O)c2)[C@H]1O [compound 10, 3,5-di-O-caffeoylquinic acid] | 52.85 | 18.4 | > 19.4 | 42.91 | Inhibition (%) α-glucosidase ([1]; 5 μg/mL): 9.34%; Inhibition (%) α-glucosidase ([1]; 25 μg/mL): 33.72%; Inhibition (%) α-glucosidase ([1]; 100 μg/mL): 99.44%; IC50 ([1]; isolated compounds): 88.1 µM; IC50 α-glucosidase [1, 7]: 45.48 ± 4.52 µg/mL (≈ 88.1 µM); rat lens aldose reductase inhibitory activity [5]: strong; recombinant aldose reductase inhibitory activity [6]: strong |
| N=C(N)NN [Aminoguanidine, reference compound] |  |  |  | 37.84 | Inhibition (%) AGEs ([3]; 50 μg/mL): 27.97%; Inhibition (%) AGEs ([3]; 200 μg/mL): 61.01%; Inhibition (%) AGEs ([3]; 400 μg/mL): 98.17%; IC50 AGEs ([3]; Table 2, crude extract and fractions): 166.22 ± 16.29 µg/mL (≈ 2240 µM); IC50 ([3]; isolated compounds): 1410 µM; IC50 AGEs ([3]; isolated compounds): 155.88 ± 15.45 µg/mL (≈ 2100 µM) |
| Nc1ccn([C@@H]2O[C@H](CO)[C@@H](O)[C@H]2O)c(=O)n1 [compound 3, cytidine] | 4.70 | < 0 | > 41.1 | 33.16 |  |
